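Protocol summary: plate cells (96-well), add compound at 5 concentrations, incubate 48 h, interpolate endpoints linearly. GI50: concentration for 50% inhibition of growth.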 The source made the active and inactive calls. No stated cut-off is given here; in the data, active = GI50 up to about 1.1 µM and inactive = higher.
Assays:
Experiment in all cases: growth of human tumour cells (NCI), 48 h
EKVX = system: EKVX
SF-295 = system: SF-295
UACC-62 = system: UACC-62
K562 = system: K562
BT-549 = system: BT-549
HOP-92 = system: HOP-92
M14 = system: M14
OVCAR-4 = system: OVCAR-4
SR = system: SR
UO-31 = system: UO-31
LOX IMVI = system: LOX IMVI
SNB-75 = system: SNB-75
NCI-H460 = system: NCI-H460
RPMI-8226 = system: RPMI-8226
TK-10 = system: TK-10
OVCAR-8 = system: OVCAR-8
UACC-257 = system: UACC-257
A498 = system: A498
Malme-3M = system: Malme-3M
A549 = system: A549

Row | Compound | GI50 (EKVX) | GI50 (SF-295) | GI50 (UACC-62) | GI50 (K562) | GI50 (BT-549) | GI50 (HOP-92) | GI50 (M14) | GI50 (OVCAR-4) | GI50 (SR) | GI50 (UO-31) | GI50 (LOX IMVI) | GI50 (SNB-75) | GI50 (NCI-H460) | GI50 (RPMI-8226) | GI50 (TK-10) | GI50 (OVCAR-8) | GI50 (UACC-257) | GI50 (A498) | GI50 (Malme-3M) | GI50 (A549)
1 | COc1ccc2c(=O)c3ccoc3[nH]c2c1 | > 100 µM (inactive) | > 100 µM (inactive) | > 100 µM (inactive) | > 100 µM (inactive) | > 100 µM (inactive) | > 100 µM (inactive) | > 100 µM (inactive) | > 100 µM (inactive) | > 100 µM (inactive) | > 100 µM (inactive) | > 100 µM (inactive) | > 100 µM (inactive) | > 100 µM (inactive) | > 100 µM (inactive) | > 100 µM (inactive) | > 100 µM (inactive) | > 100 µM (inactive) | > 100 µM (inactive) |  | 
2 | O=C1[C@@H]2Cc3c([nH]c4ccccc34)C(C3CCCCC3)N2C(=O)[C@@H]2CCCN12 (stereo partly drawn) | 33.5 µM (inactive) | 21.1 µM (inactive) | 17.3 µM (inactive) | 37.2 µM (inactive) | 30.6 µM (inactive) | 29.6 µM (inactive) | 37.8 µM (inactive) | 35.2 µM (inactive) | 19.9 µM (inactive) | 32.3 µM (inactive) | 28.3 µM (inactive) |  |  | 21.3 µM (inactive) | 35.6 µM (inactive) | 36.7 µM (inactive) | 29.2 µM (inactive) | 37.8 µM (inactive) | 18.9 µM (inactive) | 33.1 µM (inactive)
3 | Cc1ccc(S(=O)(=O)NC(=O)Nc2nc[nH]n2)cc1 | > 100 µM (inactive) | > 100 µM (inactive) | > 100 µM (inactive) | > 100 µM (inactive) | > 100 µM (inactive) | > 100 µM (inactive) | > 100 µM (inactive) | > 100 µM (inactive) | > 100 µM (inactive) | > 100 µM (inactive) |  | > 100 µM (inactive) | > 100 µM (inactive) | > 100 µM (inactive) | > 100 µM (inactive) | > 100 µM (inactive) | > 100 µM (inactive) | > 100 µM (inactive) | > 100 µM (inactive) | > 100 µM (inactive)
4 | Cc1cc(CCC(=O)NCCNc2c3ccccc3nc3ccccc23)cc(C)c1O[Si](C)(C)C(C)(C)C | 1.6 µM (inactive) | 0.807 µM (active) | 14.5 µM (inactive) | 0.276 µM (active) | 1.72 µM (inactive) | 1.53 µM (inactive) | 1.66 µM (inactive) | 1.32 µM (inactive) | 0.214 µM (active) | 1.83 µM (inactive) | 0.148 µM (active) |  | 0.762 µM (active) | 0.331 µM (active) | 1.63 µM (inactive) | 1.47 µM (inactive) | 2.01 µM (inactive) | 0.525 µM (active) | 2.06 µM (inactive) | 0.638 µM (active)
5 | O=C(N(O)c1ccccc1Cl)C(O)(c1ccccc1)c1ccccc1 | > 100 µM (inactive) | 30.4 µM (inactive) | 45.8 µM (inactive) | 24.4 µM (inactive) | 60.1 µM (inactive) | 26.1 µM (inactive) | 54.1 µM (inactive) | > 100 µM (inactive) | 18.1 µM (inactive) | 20.6 µM (inactive) | 49.3 µM (inactive) |  | > 100 µM (inactive) | 23.8 µM (inactive) | 62.4 µM (inactive) | 76.2 µM (inactive) | > 100 µM (inactive) | > 100 µM (inactive) | > 100 µM (inactive) | 71.1 µM (inactive)
